According to US20260256830A1, “PERITONEAL DIALYSIS FLUID” (ZYTOPROTEC FLEXIBLE KAPITALGESELLSCHAFT, priority 2022, published 2026):
Peptide text beside a SMILES is read from it.

Assay: Long-term stability of AGD in alkaline solution (amino acid analysis)
Format: physicochemical
Conditions: 52 weeks; for AGD, % of original amount after storage: 25° C./60% rH
Experimental: The long-term stability tests of AGD in an alkaline solution according to the present invention have been performed. […] The pH of each sample was adjusted with 1 M NaOH. Aliquots of each sample were prepared under controlled conditions and stored under the defined conditions at 25° C./60% rH. Sterilization was performed under following conditions: The stability of AGD has been investigated by AS analysis. Analysis was performed by […] amino acid analysis with JEX and post column derivatization with Ninhydrine.

C[C@H](N)C(=O)N[C@@H](CCC(N)=O)C(=O)O [AGD, L-alanyl-L-glutamine] (H-Ala-Gln-OH)
decrease of the AGD, of original amount (both samples (pH 7.4 and 7.8), storage at 25° C./60% rH): less than 5% | AGD, % of original amount after storage (sample with pH-value of 7.4): 98% | AGD, % of original amount after storage (sample with pH-value of 7.8): > 95%
